Measurements: patent publication US9580444B2, “Polycyclic pyrazolinone derivative and herbicide comprising same as effective component thereof” (priority 2013, dated 2017)

test system: Cyperus difformis (smallflower umbrella plant); assay: Test Example-1: herbicidal effect by a treatment before weeds are generated under submerged conditions; type: in vivo; details: 500 g a.i/ha, pre-emergence treatment, about 15 days after treatment, score 0-5
Summary of the method: (§1)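 Paddy soil in cups was puddled, seeded with the weeds and kept flooded; compound as wettable powder or emulsifiable concentrate was diluted and applied into the water on the seeding day at a set dosage. Effect was scored about 15 days later on a 0–5 scale.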

Compound	Herbicidal effect Cyperus difformis
C=CCOc1cc(Cl)ccc1Oc1cc(-c2c(Cl)n3n(c2=O)CCCC3)c(F)cc1Cl [Compound 3-38]	5 (Herbicidal effect/phytotoxicity was 90% or greater)
CC(C)(C)OC(=O)COc1cc(-c2c(Cl)n3n(c2=O)CCCC3)c(F)cc1Cl [Example 1-165]	5 (Herbicidal effect/phytotoxicity was 90% or greater)
C=CCOc1cc(F)ccc1Oc1cc(-c2c(Cl)n3n(c2=O)CCCC3)c(F)cc1Cl [Compound 3-34]	5 (Herbicidal effect/phytotoxicity was 90% or greater)
CCOC(=O)C=C(COc1cc(-c2c(Cl)n3n(c2=O)CCCC3)c(F)cc1Cl)OCC (mixture of isomers) [Compound 2-19]	5 (Herbicidal effect/phytotoxicity was 90% or greater)
COCOc1cccc(Oc2cc(-c3c(Cl)n4n(c3=O)CCCC4)c(F)cc2Cl)c1 [Compound 3-14]	5 (Herbicidal effect/phytotoxicity was 90% or greater)
C=CCOC(=O)C=C(COc1ccccc1Oc1cc(-c2c(Cl)n3n(c2=O)CCCC3)c(F)cc1Cl)OCC [Compound 3-25]	5 (Herbicidal effect/phytotoxicity was 90% or greater)
C=CCOc1ccc(Oc2cc(-c3c(Cl)n4n(c3=O)CCCC4)c(F)cc2Cl)cc1 [Compound 3-29]	5 (Herbicidal effect/phytotoxicity was 90% or greater)
CCOC(=O)C(Cl)Cc1cc(-c2c(Cl)n3n(c2=O)CCCC3)c(F)cc1Cl (stereo not drawn) [Example 1-260]	5 (Herbicidal effect/phytotoxicity was 90% or greater)

test system: Echinochloa oryzicola (barnyard grass); assay: as above; type: in vivo; details: 500 g a.i/ha, pre-emergence treatment, about 15 days after treatment, score 0-5
Summary of the method: as §1

Compound	Herbicidal effect Echinochloa oryzicola
C=CCOc1cc(Cl)ccc1Oc1cc(-c2c(Cl)n3n(c2=O)CCCC3)c(F)cc1Cl [Compound 3-38]	5 (Herbicidal effect/phytotoxicity was 90% or greater)
CC(C)(C)OC(=O)COc1cc(-c2c(Cl)n3n(c2=O)CCCC3)c(F)cc1Cl [Example 1-165]	5 (Herbicidal effect/phytotoxicity was 90% or greater)
C=CCOc1cc(F)ccc1Oc1cc(-c2c(Cl)n3n(c2=O)CCCC3)c(F)cc1Cl [Compound 3-34]	5 (Herbicidal effect/phytotoxicity was 90% or greater)
CCOC(=O)C=C(COc1cc(-c2c(Cl)n3n(c2=O)CCCC3)c(F)cc1Cl)OCC (mixture of isomers) [Compound 2-19]	5 (Herbicidal effect/phytotoxicity was 90% or greater)
COCOc1cccc(Oc2cc(-c3c(Cl)n4n(c3=O)CCCC4)c(F)cc2Cl)c1 [Compound 3-14]	5 (Herbicidal effect/phytotoxicity was 90% or greater)
C=CCOC(=O)C=C(COc1ccccc1Oc1cc(-c2c(Cl)n3n(c2=O)CCCC3)c(F)cc1Cl)OCC [Compound 3-25]	5 (Herbicidal effect/phytotoxicity was 90% or greater)
C=CCOc1ccc(Oc2cc(-c3c(Cl)n4n(c3=O)CCCC4)c(F)cc2Cl)cc1 [Compound 3-29]	5 (Herbicidal effect/phytotoxicity was 90% or greater)
CCOC(=O)C(Cl)Cc1cc(-c2c(Cl)n3n(c2=O)CCCC3)c(F)cc1Cl (stereo not drawn) [Example 1-260]	5 (Herbicidal effect/phytotoxicity was 90% or greater)

test system: Eleocharis acicularis (needle spikerush); assay: as above; type: in vivo; details: 500 g a.i/ha, pre-emergence treatment, about 15 days after treatment, score 0-5
Summary of the method: as §1

Compound	Herbicidal effect Eleocharis acicularis
C=CCOc1cc(Cl)ccc1Oc1cc(-c2c(Cl)n3n(c2=O)CCCC3)c(F)cc1Cl [Compound 3-38]	5 (Herbicidal effect/phytotoxicity was 90% or greater)
CC(C)(C)OC(=O)COc1cc(-c2c(Cl)n3n(c2=O)CCCC3)c(F)cc1Cl [Example 1-165]	5 (Herbicidal effect/phytotoxicity was 90% or greater)
C=CCOc1cc(F)ccc1Oc1cc(-c2c(Cl)n3n(c2=O)CCCC3)c(F)cc1Cl [Compound 3-34]	5 (Herbicidal effect/phytotoxicity was 90% or greater)
CCOC(=O)C=C(COc1cc(-c2c(Cl)n3n(c2=O)CCCC3)c(F)cc1Cl)OCC (mixture of isomers) [Compound 2-19]	5 (Herbicidal effect/phytotoxicity was 90% or greater)
COCOc1cccc(Oc2cc(-c3c(Cl)n4n(c3=O)CCCC4)c(F)cc2Cl)c1 [Compound 3-14]	5 (Herbicidal effect/phytotoxicity was 90% or greater)
C=CCOC(=O)C=C(COc1ccccc1Oc1cc(-c2c(Cl)n3n(c2=O)CCCC3)c(F)cc1Cl)OCC [Compound 3-25]	5 (Herbicidal effect/phytotoxicity was 90% or greater)
C=CCOc1ccc(Oc2cc(-c3c(Cl)n4n(c3=O)CCCC4)c(F)cc2Cl)cc1 [Compound 3-29]	5 (Herbicidal effect/phytotoxicity was 90% or greater)
CCOC(=O)C(Cl)Cc1cc(-c2c(Cl)n3n(c2=O)CCCC3)c(F)cc1Cl (stereo not drawn) [Example 1-260]	5 (Herbicidal effect/phytotoxicity was 90% or greater)

test system: Monochoria vaginalis (monochoria); assay: as above; type: in vivo; details: 500 g a.i/ha, pre-emergence treatment, about 15 days after treatment, score 0-5
Summary of the method: as §1

Compound	Herbicidal effect Monochoria vaginalis
C=CCOc1cc(Cl)ccc1Oc1cc(-c2c(Cl)n3n(c2=O)CCCC3)c(F)cc1Cl [Compound 3-38]	5 (Herbicidal effect/phytotoxicity was 90% or greater)
CC(C)(C)OC(=O)COc1cc(-c2c(Cl)n3n(c2=O)CCCC3)c(F)cc1Cl [Example 1-165]	5 (Herbicidal effect/phytotoxicity was 90% or greater)
C=CCOc1cc(F)ccc1Oc1cc(-c2c(Cl)n3n(c2=O)CCCC3)c(F)cc1Cl [Compound 3-34]	5 (Herbicidal effect/phytotoxicity was 90% or greater)
CCOC(=O)C=C(COc1cc(-c2c(Cl)n3n(c2=O)CCCC3)c(F)cc1Cl)OCC (mixture of isomers) [Compound 2-19]	5 (Herbicidal effect/phytotoxicity was 90% or greater)
COCOc1cccc(Oc2cc(-c3c(Cl)n4n(c3=O)CCCC4)c(F)cc2Cl)c1 [Compound 3-14]	5 (Herbicidal effect/phytotoxicity was 90% or greater)
C=CCOC(=O)C=C(COc1ccccc1Oc1cc(-c2c(Cl)n3n(c2=O)CCCC3)c(F)cc1Cl)OCC [Compound 3-25]	5 (Herbicidal effect/phytotoxicity was 90% or greater)
C=CCOc1ccc(Oc2cc(-c3c(Cl)n4n(c3=O)CCCC4)c(F)cc2Cl)cc1 [Compound 3-29]	5 (Herbicidal effect/phytotoxicity was 90% or greater)
CCOC(=O)C(Cl)Cc1cc(-c2c(Cl)n3n(c2=O)CCCC3)c(F)cc1Cl (stereo not drawn) [Example 1-260]	5 (Herbicidal effect/phytotoxicity was 90% or greater)

test system: Scirpus juncoides (bulrush); assay: as above; type: in vivo; details: 500 g a.i/ha, pre-emergence treatment, about 15 days after treatment, score 0-5
Summary of the method: as §1

Compound	Herbicidal effect Scirpus juncoides
C=CCOc1cc(Cl)ccc1Oc1cc(-c2c(Cl)n3n(c2=O)CCCC3)c(F)cc1Cl [Compound 3-38]	5 (Herbicidal effect/phytotoxicity was 90% or greater)
CC(C)(C)OC(=O)COc1cc(-c2c(Cl)n3n(c2=O)CCCC3)c(F)cc1Cl [Example 1-165]	5 (Herbicidal effect/phytotoxicity was 90% or greater)
C=CCOc1cc(F)ccc1Oc1cc(-c2c(Cl)n3n(c2=O)CCCC3)c(F)cc1Cl [Compound 3-34]	5 (Herbicidal effect/phytotoxicity was 90% or greater)
CCOC(=O)C=C(COc1cc(-c2c(Cl)n3n(c2=O)CCCC3)c(F)cc1Cl)OCC (mixture of isomers) [Compound 2-19]	5 (Herbicidal effect/phytotoxicity was 90% or greater)
COCOc1cccc(Oc2cc(-c3c(Cl)n4n(c3=O)CCCC4)c(F)cc2Cl)c1 [Compound 3-14]	5 (Herbicidal effect/phytotoxicity was 90% or greater)
C=CCOC(=O)C=C(COc1ccccc1Oc1cc(-c2c(Cl)n3n(c2=O)CCCC3)c(F)cc1Cl)OCC [Compound 3-25]	5 (Herbicidal effect/phytotoxicity was 90% or greater)
C=CCOc1ccc(Oc2cc(-c3c(Cl)n4n(c3=O)CCCC4)c(F)cc2Cl)cc1 [Compound 3-29]	5 (Herbicidal effect/phytotoxicity was 90% or greater)
CCOC(=O)C(Cl)Cc1cc(-c2c(Cl)n3n(c2=O)CCCC3)c(F)cc1Cl (stereo not drawn) [Example 1-260]	5 (Herbicidal effect/phytotoxicity was 90% or greater)

test system: other annual broad leaf weeds (Lindernia procumbens, Rotala indica, Elatine triandra); assay: as above; type: in vivo; details: 500 g a.i/ha, pre-emergence treatment, about 15 days after treatment, score 0-5
Summary of the method: as §1

Compound	Herbicidal effect Broadleaf weed
C=CCOc1cc(Cl)ccc1Oc1cc(-c2c(Cl)n3n(c2=O)CCCC3)c(F)cc1Cl [Compound 3-38]	5 (Herbicidal effect/phytotoxicity was 90% or greater)
CC(C)(C)OC(=O)COc1cc(-c2c(Cl)n3n(c2=O)CCCC3)c(F)cc1Cl [Example 1-165]	5 (Herbicidal effect/phytotoxicity was 90% or greater)
C=CCOc1cc(F)ccc1Oc1cc(-c2c(Cl)n3n(c2=O)CCCC3)c(F)cc1Cl [Compound 3-34]	5 (Herbicidal effect/phytotoxicity was 90% or greater)
CCOC(=O)C=C(COc1cc(-c2c(Cl)n3n(c2=O)CCCC3)c(F)cc1Cl)OCC (mixture of isomers) [Compound 2-19]	5 (Herbicidal effect/phytotoxicity was 90% or greater)
COCOc1cccc(Oc2cc(-c3c(Cl)n4n(c3=O)CCCC4)c(F)cc2Cl)c1 [Compound 3-14]	5 (Herbicidal effect/phytotoxicity was 90% or greater)
C=CCOC(=O)C=C(COc1ccccc1Oc1cc(-c2c(Cl)n3n(c2=O)CCCC3)c(F)cc1Cl)OCC [Compound 3-25]	5 (Herbicidal effect/phytotoxicity was 90% or greater)
C=CCOc1ccc(Oc2cc(-c3c(Cl)n4n(c3=O)CCCC4)c(F)cc2Cl)cc1 [Compound 3-29]	5 (Herbicidal effect/phytotoxicity was 90% or greater)
CCOC(=O)C(Cl)Cc1cc(-c2c(Cl)n3n(c2=O)CCCC3)c(F)cc1Cl (stereo not drawn) [Example 1-260]	5 (Herbicidal effect/phytotoxicity was 90% or greater)
